Reference: ChEMBL document CHEMBL1152803, “Synthesis and vasodilator effects of rutaecarpine analogues which might be involved transient receptor potential vanilloid subfamily, member 1 (TRPV1)” (Bioorg Med Chem, 2009)
Activity calls are given as the source filed them. The calls are words filed in the database; no cut-off is given here.

System: Aorta
Experiment: Vasodilative activity against […] Sprague-Dawley rat thoracic aorta assessed as reduction in phenylepinephrine-induced contraction
Format: functional, tissue-based
Conditions: not given

| Compound | EC50 [µM] | Emax [%] |
| --- | --- | --- |
| CC12Oc3ccccc3C(=O)N1CCc1c2[nH]c2ccccc12 (stereo not given) | 1590 | 29.9 |
| COC(=O)C(Cc1c[nH]c2ccccc12)n1cnc2ccccc2c1=O (stereo not given) | 5460 | 15.5 |
| O=C1c2ccccc2OC2c3[nH]c4ccccc4c3CCN12 (stereo not given) | 220 | 39.8 |
| COc1ccc2[nH]c3c(c2c1)CCn1c-3nc2ccc(Br)cc2c1=O | 9.4 | 40.3 |
| O=C1c2ccccc2NC2(C(F)(F)F)c3[nH]c4ccccc4c3CCN12 (stereo not given) | 7.86 | 42.5 |
| COc1ccc2[nH]c3c(c2c1)CCn1c-3nc2cccc(Cl)c2c1=O | 19.7 | 37.1 |
| c1ccc2c(c1)CN1CCc3c([nH]c4ccccc34)C1N2 (stereo not given) [RUTAECARPANE] | 20.1 | 63.6 |
| COc1ccc2[nH]c3c(c2c1)CCn1c-3nc2ccc(Cl)cc2c1=O | 2.11 | 55.2 |
| O=c1c2ccccc2c(O)c2n1CCc1c-2[nH]c2ccccc12 | 15400 | 14.1 |
| c1ccc2c(c1)CN1CCc3c([nH]c4ccccc34)C1=N2 [RUTAECARPENE] | 25.1 | 68.9 |
| COc1ccc2[nH]c3c(c2c1)CCn1c-3c(O)c2ccccc2c1=O | 5700 | 13.2 |
| COc1ccc2[nH]c3c(c2c1)CCN1C(=O)c2ccccc2OC31C (stereo not given) | 934 | 31.6 |
| COc1ccc2[nH]c3c(c2c1)CCn1c-3nc2cc(Cl)ccc2c1=O | 22.5 | 33.9 |
| O=c1c2ccccc2nc2n1CCc1c-2[nH]c2c(Cl)cc(Cl)c(Cl)c12 | 2.31 | 51 |
| COc1ccc2[nH]c3c(c2c1)CCN1C(=O)c2ccccc2OC31 (stereo not given) | 63600 | 13 |

More lines, main results first:

| EC50 [µM] | Compound | Emax [%] |
| --- | --- | --- |
| 21.1 | O=c1c2ccc(Cl)cc2nc2n1CCc1c-2[nH]c2ccccc12 | 36.6 |
| 2.44 | O=c1c2ccccc2nc2n1CCc1c-2[nH]c2c(Cl)cccc12 | 50.1 |
| 32.3 | O=c1c2cc(Cl)ccc2nc2n1CCc1c-2[nH]c2ccccc12 | 40.6 |
| 1.24 | Cc1ccc2[nH]c3c(c2c1)CCn1c-3nc2ccccc2c1=O | 85.1 |
| 16.8 | O=c1c2c(Cl)cccc2nc2n1CCc1c-2[nH]c2ccccc12 | 39.6 |
| 1.33 | O=c1c2ccccc2nc2n1CCc1c-2[nH]c2ccccc12 [RUTAECARPINE] | 79.3 |
| 55.1 | COc1ccc2[nH]c3c(c2c1)CCn1c-3nc2ccccc2c1=O | 42.6 |
| 2.99 | Cc1cccc2c3c([nH]c12)-c1nc2ccccc2c(=O)n1CC3 | 47 |
| 3.25 | CC(=O)c1ccc2[nH]c3c(c2c1)CCn1c-3nc2ccccc2c1=O | 68.2 |

System: Rattus norvegicus
Experiment: Antihypertensive activity against phenol-induced hypertension in iv dosed Sprague-Dawley rat assessed as decrease in mean arterial blood pressure
Format: functional, organism-based
Conditions: Artery

| Compound | Activity |
| --- | --- |
| Cc1ccc2[nH]c3c(c2c1)CCn1c-3nc2ccccc2c1=O | Dose-dependent effect |

System: Rattus norvegicus
Experiment: Antihypertensive activity against phenol-induced hypertension in Sprague-Dawley rat assessed as decrease in mean arterial pressure at 300 µg/kg, iv in presence of capsaicin administered 4 days before compound administration
Conditions: Artery

| Compound | Activity |
| --- | --- |
| Cc1ccc2[nH]c3c(c2c1)CCn1c-3nc2ccccc2c1=O | inactive |
